Source: patent US20220110916A1, “Antioxidant and Use Thereof” (Bioradical Research Institute Corp., priority 2019, published 2022)

Tests used:
rat neuroid cells B50 = assay: Toxicity evaluation on byproducts after reaction with singlet oxygen, cell viability; format: cell-based; conditions: 50, 100, or 200 μmol/l reacted with RB + G-LED 525 nm in cell-free system; FIG. 6
Procedure: In a cell-free system, the RB was added to media (50% FCS-containing RPMI-1640 media) containing edaravone, ED2AP, and BisEp-C3 having a predetermined concentration (50, 100, or 200 μmol/l) and then irradiated with LED (G-LED) at 525 nm to generate singlet oxygen, whereby reacting each compound with singlet oxygen. The cell viability was measured in the same manner as in Example 7(1), except that the culture solution after the reaction was used as a medium of the neuroid cell B50. As a negative control (NC), the cell viability was measured in the same manner except that each compound and […] were not added in the cell-free system. Further, as a control (RB), the cell viability was measured in the same manner except that each compound was not added and only […] was added in the cell-free system.

[1] = Water solubility noted at synthesis; format: physicochemical; conditions: crystal obtained in Example 1
Procedure: 3.58 g of 3-methyl-1-phenyl-5-pyrazolone (hereinafter, also referred to as “edaravone”), 2.59 g of malonaldehyde dianilide hydrochloride, and 20 ml of ethanol were added to a reactor and dissolved. To the obtained solution, 2.04 g of triethylamine and 0.4 ml of water were added and stirred for 1 hour at room temperature (about 25° C., hereinafter, the same applies). After the stirring, the resultant was further reacted for 1 hour at 50° C. After discharging the obtained reaction solution to 100 ml of 1N hydrochloric acid, the mixture was sufficiently stirred and the precipitate was filtered. The resulting cake was washed with water. The cake was added to 200 ml of an aqueous sodium hydroxide solution having a 1% by weight concentration and completely dissolved by heating with stirring. Next, the dissolved solution was stirred for 3 hours after cooling to room temperature. Then, the liquid containing the obtained precipitate was filtered, and then the cake was washed with water. […] Note that the melting point of ED2AP was 249° C., which was water-soluble.
3 ml of dimethylformamide was added to a reactor and the exterior of the reactor was cooled with ice water. 1.75 g of phosphorus oxychloride was slowly dropped into the reactor (Reaction Solution A). In another reactor, 1.78 g of edaravone was dissolved in 5 ml of dimethylformamide (Reaction Solution B). Under room temperature, the reaction solution B was slowly added to the reaction solution A, and the resulting mixture was allowed to react for 1 hour with the end of addition (Reaction Solution C) being a reference. In another reactor, 1.81 g of 3-methyl-1-phenyl-5-pyrazolone was added to 8 ml of chloroform and dissolved (Reaction Solution D). Under room temperature, the reaction solution C was slowly added to the reaction solution D, followed by stirring for 20 minutes and further stirring at 70° C. for 1 hour. To the resultant, 0.2 g of water was added and stirred for another 2 hours. The obtained reaction solution was discharged into 100 ml of water and extracted with a mixed solvent of toluene/ethyl acetate=1/1 (volume ratio). After condensation of the obtained extract, column purification was performed to obtain 2.92 g of yellow crystal of the compound of the formula (10) having the following physical properties.
1.00 g of edaravone, 0.72 g of paraformaldehyde, and 20 ml of formic acid were added to a reaction flask and stirred overnight for 20 hours at 70° C. The obtained reaction solution was discharged into 80 ml of water and extracted with a mixed solvent of toluene/ethyl acetate=1/1 (volume ratio). When the extract was condensed to about two-thirds, crystals were precipitated. Further, the resultant was cooled to room temperature, and sufficiently crystallized, and then filtered. The obtained cake was washed with toluene to obtain 0.88 g of pale yellow crystal of the compound of the formula (14) having the following physical properties.
In Example 1(1), synthesis was performed in the same manner as described above except that 3-methyl-1-ethyl-5-pyrazolone was used instead of edaravone to obtain red crystal of BisEp-C3 having the following physical properties. Note that BisEp-C3 was water-soluble.
In Example 1(2), synthesis was performed in the same manner as described above except that 3-methyl-1-ethyl-5-pyrazolone was used instead of edaravone to obtain yellow crystal of BisEp-C1 having the following physical properties. Note that BisEp-C1 was water-soluble.
In Example 1(3), synthesis was performed in the same manner as described above except that 3-methyl-1-ethyl-5-pyrazolone was used instead of edaravone, then the obtained reaction solution was condensed, and the resultant was subjected to column purification to obtain colorless crystal of BisEp-C1 (H2) having the following physical properties. Note that BisEp-C1 (H2) was water-soluble.

[2] = test system: neutrophils isolated from the peripheral blood of healthy individuals; assay: Superoxide production amount of PMA-stimulated neutrophils, CLA chemiluminescence; format: cell-based, human; conditions: for relative value of the superoxide production amount: 0-200 μmol/l or 0-5000 μmol/l, PMA 100 ng/ml, control being 100, FIG. 2; for reactive oxygen species-eliminating ability compared with edaravone: PMA-stimulated neutrophils, FIG. 2(A)
Procedure: For examining the reactive oxygen-eliminating effect of the antioxidant of the present invention, the superoxide produced by the neutrophils when the neutrophils isolated from the peripheral blood of healthy individuals were stimulated with PMA (phorbor-12-myristate-13-acetate) was used. The superoxide production amount was measured by chemiluminescence using CLA (2-methyl-6-pjenyl-3, 7-dihydroimidazo[1,2-a]pyrazine-3-one).
First, ED2AP, BisEp-C3, edaravone, BisEp-C1, or BisEp-C1 (H2) was added to a neutrophil of 4×10^5 cells per sample so as to achieve a predetermined concentration (0, 12.5, 25, 50, 100, or 200 μmol/l, or 0, 125, 250, 500, 1250, 2500, or 5000 μmol/l) with 5 μmol of CLA, and then the cell suspension was seeded in flat-bottomed 96-well plates. The volume of the suspension was 200 μl/well, and phenol red free Ca+, Mg+ HBSS was used as the solution. In addition, the neutrophil was stimulated by adding PMA so as to achieve a concentration of 100 ng/ml. After the stimulation, a plate reader (Envision 2104 Multilabel Reader, produced by Perkin Elmer Co., Ltd.) was used to measure the chemiluminescence value over time for 30 minutes with the PMA stimulation time being a reference. The measurement interval was 30 seconds. The sum of the chemiluminescence values obtained every 30 seconds for 30 minutes was taken as the superoxide production amount. In addition, as a control, the superoxide production amount was measured in the same manner except that each compound was not added. The relative value of the superoxide production amount when each compound was added was calculated with the superoxide production amount of the control being 100.

SMILES | cytotoxicity of the byproducts after reaction with singlet oxygen (cell viability) (rat neuroid cells B50) | solubility in water [1] | relative value of the superoxide production amount [2] | reactive oxygen species-eliminating ability compared with edaravone [2]
CCN1N=C(C)/C(=C\C=C\c2c(C)nn(CC)c2O)C1=O (racemic) [BisEp-C3, 2,4-dihydro-4-[3-(1-ethyl-5-hydroxy-3-methyl-1H-pyrazol-4-yl)-2-propen-1-ylidene]-2-ethyl-5-methyl-3H-pyrazol-3-one] | not cytotoxic at any concentration | water-soluble | suppressed the superoxide production amount in a concentration-dependent manner | more potent than edaravone at high concentrations
CC1=NN(c2ccccc2)C(=O)/C1=C/C=C/c1c(C)nn(-c2ccccc2)c1O (racemic) [ED2AP, 2,4-dihydro-4-[3-(5-hydroxy-3-methyl-1-phenyl-1H-pyrazol-4-yl)-2-propen-1-ylidene]-5-methyl-2-phenyl-3H-pyrazol-3-one] | not cytotoxic at any concentration | water-soluble | suppressed the superoxide production amount in a concentration-dependent manner | more potent than edaravone at high concentrations
